Test results as given in patent US20160213569A1, “PHARMACEUTICAL COMPOSITIONS OF RANOLAZINE AND DRONEDARONE” (Gilead Sciences, Inc., priority 2013, published 2016).

Experiment: Stability of phosphoric acid salt of dronedarone prepared without polymer
Format: physicochemical
Details: 45° C. and 75% relative humidity (RH)

CCCCc1oc2ccc(NS(C)(=O)=O)cc2c1C(=O)c1ccc(OCCCN(CCCC)CCCC)cc1.O=P(O)(O)O [phosphoric acid salt of dronedarone]
Stability: unstable
